Laboratory results published in patent publication USH1168H, “Inhibitors of protein kinase C activity as protectors against septic shock and reducers of ARDS” (priority 1991, dated 1993).
“Also recorded” adds a separate entry of the source.

Tests used:
[1] = system: myosin light chain kinase; details: to an extent comparable to H7 (20); cited from earlier work
[2] = system: intact endothelium rat aortic rings; test: KCl-induced contraction of intact rat aortic rings after 16 h incubation with LPS and/or PKC inhibitors; assay type: cell-based; details: for EC50: Rattus norvegicus, 16 h, intact endothelium, read-out: EC50 value for KCl stimulated contraction (EC50 of the agonist KCl); for maximum contraction to KCl / sensitivity to KCl: inhibitor 25 μM by itself, no LPS
Experimental: FIG. 2 is a graph showing contraction to cumulative doses of KCl by rat aortic rings incubated for 16 hr in combinations of control, LPS, H7, and HA1004 treated media. (Panel A) Response by rings incubated in medium only (open circles), medium plus H7 (25 μM, closed circles), medium containing LPS (10 ng/ml, open triangles), and medium containing LPS plus H7 (closed triangles). (Panel B) For clarity in presentation, responses by rings incubated in medium only (open circles) and LPS treated medium (open triangles) are reproduced from Panel A. Additional rings were incubated in medium plus HA1004 (25 μM, closed circles), and medium containing LPS plus HA1004 (closed triangles). Rings were prepared and data is presented as described in FIG. 1. N=6 rats.
(§1) Tissue preparation and incubation. Male Sprague-Dawley rats (250-350 g, Taconic Farms, Germantown, N.Y.) were used. Rat thoracic aortic rings were prepared and incubated as detailed by McKenna (14). In brief, 4 or 6 rings were prepared from each rat. Care was taken during dissection to maintain the patency of the endothelium. Some aortas were de-endothelialized before sectioning into rings by perfusion with phosphate buffered saline (PBS) containing 1% deoxycholate for 30 sec followed by a PBS and bubble rinse for 5 min. Rings were incubated in DME (Dulbecco's Modified Eagle's medium) supplemented with 1% fetal calf serum, 100 μg/ml streptomycin, and 100 U/ml penicillin. During incubation, the rings were exposed to combinations of LPS (10 or 35 ng/ml), H7 (25 μM), HA1004 (N-(2-guanidinoethyl)-5-isoquinolinesulfonamide) (25 μM), sphingosine (20 μM), or their vehicles. […] Rings used in measures of contractile performance were placed individually in Petri dishes containing 1.2 ml DME and were distributed so that tissue isolated from each aorta was allocated to every combination of treatments within an experiment. […] All tissue isolated from an aorta (six rings) was allocated to a single treatment. The media and rings were rotated gently for 16-18 hr in an incubator at 37° C. under a 95% O2 -5% CO2 atmosphere.
(§2) Measurement of aortic ring contraction. After incubation, rings were mounted in tissue baths, equilibrated, and pre-contracted as previously detailed (14). These procedures required approximately 90 min. Rings were maintained in Krebs Ringer Bicarbonate buffer (KRB, 14). Contractions by six or eight rings were measured simultaneously and recorded on multichannel strip chart recorders. […] Other rings were contracted by withdrawing KRB from the tissue baths and adding increasing volumes of a high KCl KRB (120 mM, made by equimolar substitution of KCl for NaCl) to the baths to yield final KCl concentrations of 10 to 80 mM. All rings were blotted and weighed after experiments were completed.
(§3) Statistics. […] Tests for differences between EC50 values were based on log EC50 values (17). EC50 values were then converted to […] means to allow expression as nanomolar concentrations. Examination of differences among four or six treatment means was by randomized blocks analysis of variance; if significant differences were present, then pairs of means were tested by Student-Newman-Keuls a posteriori tests (18). Paired t-tests were used to assess differences between two treatment means. […] Differences with probabilities of 0.05 or less were accepted as significant. All data are expressed as means±SEM.

[3] = system: intact endothelium rat aortic rings; test: NE-induced contraction of intact rat aortic rings after 16 h incubation with LPS and/or PKC inhibitors; assay type: cell-based; details: for EC50 and Emax (sensitivity and maximum contraction) to NE versus control tissue: LPS 10 ng/ml plus inhibitor 25 μM; for EC50: Rattus norvegicus, 16 h, intact endothelium, read-out: EC50 value for NE stimulated contraction (EC50 of the agonist NE); for blocking of LPS effects on contraction to NE: co-incubation, inhibitor 25 μM, LPS 10 ng/ml
Experimental: FIG. 1 is a graph showing contraction to cumulative doses of NE by rat aortic rings incubated for 16 hr in combinations of control, LPS (endotoxin or lipopolysaccharide), H7, and N-(2-guanidinoethyl)-5-isoquinolinesulfonamide (HA1004; a negative control for H7) treated media. (Panel A) Responses by rings incubated in medium only (open circles), medium plus H7 (25 μM, closed circles), medium containing LPS (10 ng/ml, open triangles), and medium containing LPS plus H7 (closed triangles). (Panel B) For clarity in presentation, responses by rings incubated in medium only (open circles) and LPS treated medium (open triangles) are reproduced from Panel A. Additional rings were incubated in medium plus HA1004 (25 μM, closed circles), and medium containing LPS plus HA1004 (closed triangles). Six rings were prepared from each rat and one ring allocated into each medium formulation. […] The curves are the best fit of the data by nonlinear least squares to a polynomial model. N=8 rats.
as §1, §2, §3

cAMP dependent kinase = details: to an extent comparable to H7 (20); cited from earlier work
cGMP dependent kinase = details: to an extent comparable to H7 (20); cited from earlier work
human neutrophils = details: PMA alone (31); cited from earlier work
[4] = system: de-endothelialized rat aortic rings; test: NE-induced contraction of de-endothelialized rat aortic rings after 16 h incubation with LPS and/or sphingosine; assay type: cell-based; details: for EC50: Rattus norvegicus, 16 h, de-endothelialized, read-out: EC50 value for NE stimulated contraction (EC50 of the agonist NE)
Experimental: (§4) FIG. 3 is a graph showing contraction to cumulative doses of NE and KCl by rat de-endothelialized aortic rings incubated for 16 hr in combinations of control, LPS, and sphingosine treated media. (Panel A) Contraction to NE by rings incubated in medium only (open circles), medium plus sphingosine (20 μM, closed circles), medium containing LPS (35 ng/ml, open triangles), and medium containing LPS plus sphinogosine (closed triangles). (Panel B) Contraction to KCl by rings incubated and denoted with the same symbols as detailed above. Four rings were prepared from each rat and one ring allocated into each medium formulation to evaluate responses to NE. Rings were similarly prepared to determine responses to KCl. Data is presented as in FIG. 1. N=7 rats apiece for assessment of responses to NE and KCl.
as §1, §2, §3
The amelioration of LPS-induced vascular contractile dysfunction by inhibition of PKC was further explored in de-endothelialized aortic rings incubated with D-sphingosine. The de-endothelialized rings were incubated with 35 ng/ml LPS instead of 10 ng/ml because such rings are not as sensitive to LPS as tissue with an intact endothelium (14). The effective removal of the endothelium was confirmed by the lack of relaxation to acetylcholine by pre-contracted rings during the conditioning procedure.

[5] = system: de-endothelialized rat aortic rings; test: KCl-induced contraction of de-endothelialized rat aortic rings after 16 h incubation with LPS and/or sphingosine; assay type: cell-based; details: for EC50: Rattus norvegicus, 16 h, de-endothelialized, read-out: EC50 value for KCl stimulated contraction (EC50 of the agonist KCl)
Experimental: as §4, §1, §2
as §3, with “means±SEM. […]” for “means±SEM.”

[6] = stated without test or source; cited from earlier work
PKC = details: literature (19, 42); cited from earlier work
[7] = system: Rabbit aortic smooth muscle cells; details: literature (29); cited from earlier work
[8] = system: Rabbit aortic smooth muscle cells; details: literature; cited from earlier work
platelets = details: pretreatment; stimulation with thrombin, OAG, linoleic or linolelaidic acid (25); cited from earlier work
endothelial cells [9] = details: literature (3); cited from earlier work
endothelial cells [10] = details: literature (1, 2); cited from earlier work
[11] = system: deendothelialized rat aortas; details: literature (26); cited from earlier work
[12] = LPS 10 ng/ml plus inhibitor 25 μM
[13] = LPS-treated media (10 ng/ml), alone or plus inhibitor 25 μM
[14] = control media (no LPS) plus inhibitor 25 μM
[15] = inhibitor 25 μM by itself, no LPS
[16] = LPS-treated media, alone or plus sphingosine 20 μM
[17] = control media (no LPS) plus sphingosine 20 μM
[18] = sphingosine 20 μM plus LPS 35 ng/ml

For N=C(N)NCCNS(=O)(=O)c1cccc2cnccc12 [HA1004, N-(2-guanidinoethyl)-5-isoquinolinesulfonamide], the “inhibition of myosin light chain kinase” value [1] is listed as “inhibits”, the “protection of maximal contractile performance to KCl” value ([2]; LPS 10 ng/ml plus HA1004 25 μM) is listed as “small but significant protection of maximal contractile performance” and the “protection against LPS-induced contractile dysfunction (KCl)” value [2, 12] is listed as “did not protect the tissue against LPS-induced diminished sensitivity to KCl”. The EC50 [2, 13] was 49 mM, the EC50 [2, 14] was 36 ± 3 mM and the “maximum contraction to KCl” value [2] was “significant increases in maximum contraction; also recorded: augmented contractile responses to KCl”. The “sensitivity to KCl” value [2] was “no enhancement in sensitivity to KCl”, the “EC50 and Emax (sensitivity and maximum contraction) to NE versus control tissue” value [3] was “significantly depressed sensitivity (Table I) and maximum contraction (FIG. 1B) to NE” and the EC50 [3, 13] was 2760 nM. The EC50 [3, 14] was 186 nM, the “blocking of LPS effects on contraction to NE” value [3] was “ineffective in blocking the effects of LPS on the tissue” and the “contractile function / sensitivity to NE” value [3, 15] was “significant decrease in sensitivity to NE”. For the same compound, the “maximum contraction / ring responses to NE” value [3, 15] was “tended to suppress ring responses to NE; also recorded: apparent, but non-significant, diminution in maximum contraction”, the “inhibition of cAMP dependent kinase” value (cAMP dependent kinase) was “inhibits” and the “inhibition of cGMP dependent kinase” value (cGMP dependent kinase) was “inhibits”.

In the case of CCCCCCCCCCCCCC(=O)O[C@@H]1[C@@H](C)[C@@]2(O)[C@@H](C=C(CO)C[C@]3(O)C(=O)C(C)=C[C@@H]23)[C@@H]2C(C)(C)[C@]12OC(C)=O [PMA], the “synthesis of PAF or LTB4” value (human neutrophils) is given as “could not cause synthesis of either PAF or LTB4”.

In the case of CCCCCCCCCCCCC/C=C/[C@@H](O)[C@@H](N)CO [Sphingosine, 4-trans-sphingenine], the EC50 [4, 16] is reported as 124 nM, the EC50 [4, 17] is reported as 21 nM and the “abrogation/prevention of LPS-induced contractile dysfunction” value ([4]; de-endothelialized rings, sphingosine 20 μM) is reported as “clearly abrogated the majority of the deleterious effects of LPS on rat aortic tissue contractile function; also recorded: can be prevented”. For the same compound, the “contraction to NE” value ([4]; sphingosine 20 μM only, no LPS) was “suppressed contractions to NE and KCl; also recorded: significantly diminished maximum contractions to NE and KCl”, the “protection against LPS suppression of NE-induced contraction” value [4, 18] was “significantly protected” and the “sensitivity to NE versus control rings” value [4, 18] was “remained less than that of control rings”. For the same compound, the “sensitivity to NE versus rings exposed only to LPS” value ([4]; sphingosine 20 μM plus LPS 35 ng/ml, P<0.05) was “more sensitive to NE than rings exposed only to LPS”, the EC50 [5, 16] was 27 mM and the EC50 [5, 17] was 24 ± 2 mM. The “contraction to KCl” value ([5]; sphingosine 20 μM only, no LPS) was “suppressed contractions to NE and KCl; also recorded: significantly diminished maximum contractions to NE and KCl”, the “protection against LPS suppression of KCl-induced contraction” value [5, 18] was “significantly protected” and the “EC50 for KCl versus control rings” value ([5]; sphingosine 20 μM, whether or not LPS was present) was “not significantly different from control rings”. The solubility in water [6] was “not soluble in water” and the “inhibition of PKC” value (PKC) was “capable of inhibiting PKC in vivo and in vitro”.

In the case of CCCCCCCCCCCCCC(=O)O[C@@H]1[C@@H](C)[C@@]2(O)[C@@H](C=C(CO)C[C@]3(O)C(=O)C(C)=C[C@@H]23)[C@@H]2C(C)(C)[C@]12OC(C)=O [TPA], the “whole blood serum induced intracellular Ca^2+ mobilization” value [7] is given as “inhibits whole blood serum induced intracellular Ca^2+ mobilization” and the cell proliferation [8] is given as “modulates cell proliferation”.

In the case of CC1CNCCN1S(=O)(=O)c1cccc2cnccc12 (stereo not shown) [H7, 1-(5-isoquinolinylsulfonyl)-2-methyl piperazine], the “platelet aggregation after stimulation” value (platelets) is listed as “blocked”, the “endothelial cell permeability response to inflammatory agents” value (endothelial cells [9]) is listed as “abrogated” and the “EC50 and Emax values to KCl versus control tissue” value [2, 12] is listed as “did not vary significantly from control tissue”. For the same compound, the “protection against LPS-induced contractile dysfunction (KCl)” value [2, 12] was “shielded the tissue from LPS-induced contractile dysfunction”, the EC50 [2, 13] was 32 mM and the EC50 [2, 14] was 28 ± 1 mM. The “maximum contraction to KCl” value [2] was “significant increases in maximum contraction”, the “sensitivity to KCl” value [2] was “no enhancement in sensitivity to KCl” and the “EC50 and Emax (sensitivity and maximum contraction) to NE versus control tissue” value [3] was “not significantly different from control tissue”. For the same compound, the EC50 [3, 13] was 99 nM, the EC50 [3, 14] was 51 ± 15 nM and the “blocking of LPS effects on contraction to NE” value [3] was “blocked”. For the same compound, the “contractile function / sensitivity to NE” value [3, 15] was “little change in contractile function”, the “abrogation of LPS effects on contractile function” value ([3]; intact rings, H7 25 μM) was “clearly abrogated the majority of the deleterious effects of LPS on rat aortic tissue contractile function” and the “adhesive proteins on endothelial cell surfaces” value (endothelial cells [10]) was “reduced”. The “blocking of PDB induced contraction” value [11] was “ineffective blocker of PDB induced contraction” and the “inhibition of KCl elicited contraction” value [11] was “significantly inhibits KCl elicited contraction”.
